{"source": "PubChem BioAssay AID1259407", "about": "(Chemical Carcinogenesis Research Information System (CCRIS), 2018)", "system": "CCRIS mutagenicity, Ames/micronucleus/aberration tests", "assay": "CCRIS mutagenicity studies", "key": {"[1]": {"details": "Test System: AMES SALMONELLA TYPHIMURIUM, Strain/Indicator: TA98, Metabolic Activation: NONE, Method: PREINCUBATION"}, "[2]": {"details": "Test System: AMES SALMONELLA TYPHIMURIUM, Strain/Indicator: TA98, Metabolic Activation: RAT, LIVER, S-9, AROCLOR 1254 (10%), Method: PREINCUBATION"}, "[3]": {"details": "Test System: AMES SALMONELLA TYPHIMURIUM, Strain/Indicator: TA100, Metabolic Activation: NONE, Method: PREINCUBATION"}, "[4]": {"details": "Test System: AMES SALMONELLA TYPHIMURIUM, Strain/Indicator: TA100, Metabolic Activation: RAT, LIVER, S-9, AROCLOR 1254 (10%), Method: PREINCUBATION"}}, "note": "Calls of active or inactive are those of the source. The rule behind the calls is not given here."}
{"smiles": "CNCCS(=O)(=O)O", "values": [{"measurement": "mutagenic call", "setting": "Test System: AMES SALMONELLA TYPHIMURIUM, Strain/Indicator: TA98, Metabolic Activation: HAMSTER, LIVER, S-9, AROCLOR 1254 (10%), Method: PREINCUBATION", "value": "inactive; negative"}, {"measurement": "mutagenic call", "setting": "[1]", "value": "inactive; negative"}, {"measurement": "mutagenic call", "setting": "[2]", "value": "inactive; negative"}, {"measurement": "mutagenic call", "setting": "Test System: AMES SALMONELLA TYPHIMURIUM, Strain/Indicator: TA100, Metabolic Activation: HAMSTER, LIVER, S-9, AROCLOR 1254 (10%), Method: PREINCUBATION", "value": "inactive; negative"}, {"measurement": "mutagenic call", "setting": "[3]", "value": "inactive; negative"}, {"measurement": "mutagenic call", "setting": "[4]", "value": "inactive; negative"}, {"measurement": "mutagenic call", "setting": "Test System: AMES SALMONELLA TYPHIMURIUM, Strain/Indicator: TA1535, Metabolic Activation: HAMSTER, LIVER, S-9, AROCLOR 1254 (10%), Method: PREINCUBATION", "value": "inactive; negative"}, {"measurement": "mutagenic call", "setting": "Test System: AMES SALMONELLA TYPHIMURIUM, Strain/Indicator: TA1535, Metabolic Activation: NONE, Method: PREINCUBATION", "value": "inactive; negative"}, {"measurement": "mutagenic call", "setting": "Test System: AMES SALMONELLA TYPHIMURIUM, Strain/Indicator: TA1535, Metabolic Activation: RAT, LIVER, S-9, AROCLOR 1254 (10%), Method: PREINCUBATION", "value": "inactive; negative"}, {"measurement": "mutagenic call", "setting": "Test System: AMES SALMONELLA TYPHIMURIUM, Strain/Indicator: TA1537, Metabolic Activation: HAMSTER, LIVER, S-9, AROCLOR 1254 (10%), Method: PREINCUBATION", "value": "inactive; negative"}, {"measurement": "mutagenic call", "setting": "Test System: AMES SALMONELLA TYPHIMURIUM, Strain/Indicator: TA1537, Metabolic Activation: NONE, Method: PREINCUBATION", "value": "inactive; negative"}, {"measurement": "mutagenic call", "setting": "Test System: AMES SALMONELLA TYPHIMURIUM, Strain/Indicator: TA1537, Metabolic Activation: RAT, LIVER, S-9, AROCLOR 1254 (10%), Method: PREINCUBATION", "value": "inactive; negative"}]}
{"smiles": "O=[N+]([O-])c1ccc2cc3ccccc3cc2c1", "values": [{"measurement": "mutagenic call", "setting": "[1]", "value": "active; positive"}, {"measurement": "mutagenic call", "setting": "Test System: AMES SALMONELLA TYPHIMURIUM, Strain/Indicator: TA98, Metabolic Activation: NONE, Method: STANDARD PLATE", "value": "active; positive"}, {"measurement": "mutagenic call", "setting": "[2]", "value": "active; positive"}, {"measurement": "mutagenic call", "setting": "Test System: AMES SALMONELLA TYPHIMURIUM, Strain/Indicator: TA98, Metabolic Activation: RAT, LIVER, S-9, AROCLOR 1254, Method: STANDARD PLATE", "value": "active; positive"}, {"measurement": "mutagenic call", "setting": "[3]", "value": "active; positive"}, {"measurement": "mutagenic call", "setting": "[4]", "value": "active; positive"}]}
{"smiles": "CN(C)c1ccc(N=Nc2ccc(C=O)cc2)cc1", "values": [{"measurement": "mutagenic call", "setting": "Test System: AMES SALMONELLA TYPHIMURIUM, Strain/Indicator: TA98, Metabolic Activation: RAT, LIVER, S-9, POLYCHLORINATED BIPHENYLS, Method: PREINCUBATION", "value": "active; positive"}, {"measurement": "mutagenic call", "setting": "Test System: AMES SALMONELLA TYPHIMURIUM, Strain/Indicator: TA100, Metabolic Activation: RAT, LIVER, S-9, POLYCHLORINATED BIPHENYLS, Method: PREINCUBATION", "value": "active; positive"}]}
{"smiles": "Oc1ccc2c(c1)sc1ccccc12", "values": [{"measurement": "mutagenic call", "setting": "Test System: CHINESE HAMSTER OVARY, Strain/Indicator: CHO-K1-BH4 (HGPRT)/6-THIOGUANINE, Metabolic Activation: RAT, LIVER, S-9, AROCLOR (4%)", "value": "active; positive"}]}
{"smiles": "CC(O)CN(CC(C)O)N=O", "note": "(configuration not stated)", "values": [{"measurement": "mutagenic call", "setting": "Test System: AMES SALMONELLA TYPHIMURIUM, Strain/Indicator: TA100, Metabolic Activation: HAMSTER, LIVER, S-9, 3-METHYLCHOLANTHRENE, Method: PREINCUBATION", "value": "inactive; negative"}, {"measurement": "mutagenic call", "setting": "Test System: AMES SALMONELLA TYPHIMURIUM, Strain/Indicator: TA100, Metabolic Activation: HAMSTER, LIVER, S-9, PHENOBARBITAL, Method: PREINCUBATION", "value": "active; positive"}, {"measurement": "mutagenic call", "setting": "Test System: AMES SALMONELLA TYPHIMURIUM, Strain/Indicator: TA100, Metabolic Activation: HAMSTER, LIVER, S-9, Method: PREINCUBATION", "value": "inactive; negative"}, {"measurement": "mutagenic call", "setting": "Test System: AMES SALMONELLA TYPHIMURIUM, Strain/Indicator: TA100, Metabolic Activation: HUMAN, LIVER, S-9, Method: PREINCUBATION", "value": "inactive; negative"}, {"measurement": "mutagenic call", "setting": "Test System: AMES SALMONELLA TYPHIMURIUM, Strain/Indicator: TA100, Metabolic Activation: MONKEY, LIVER, S-9, Method: PREINCUBATION", "value": "inactive; negative"}, {"measurement": "mutagenic call", "setting": "Test System: AMES SALMONELLA TYPHIMURIUM, Strain/Indicator: TA100, Metabolic Activation: MOUSE, LIVER, S-9, 3-METHYLCHOLANTHRENE, Method: PREINCUBATION", "value": "inactive; negative"}, {"measurement": "mutagenic call", "setting": "Test System: AMES SALMONELLA TYPHIMURIUM, Strain/Indicator: TA100, Metabolic Activation: MOUSE, LIVER, S-9, PHENOBARBITAL, Method: PREINCUBATION", "value": "active; positive"}, {"measurement": "mutagenic call", "setting": "Test System: AMES SALMONELLA TYPHIMURIUM, Strain/Indicator: TA100, Metabolic Activation: MOUSE, LIVER, S-9, Method: PREINCUBATION", "value": "inactive; negative"}, {"measurement": "mutagenic call", "setting": "[3]", "value": "inactive; negative"}, {"measurement": "mutagenic call", "setting": "Test System: AMES SALMONELLA TYPHIMURIUM, Strain/Indicator: TA100, Metabolic Activation: RABBIT, LIVER, S-9, Method: PREINCUBATION", "value": "inactive; negative"}, {"measurement": "mutagenic call", "setting": "Test System: AMES SALMONELLA TYPHIMURIUM, Strain/Indicator: TA100, Metabolic Activation: RAT, LIVER, CYTOSOL, PCB, Method: PREINCUBATION", "value": "inactive; negative"}, {"measurement": "mutagenic call", "setting": "Test System: AMES SALMONELLA TYPHIMURIUM, Strain/Indicator: TA100, Metabolic Activation: RAT, LIVER, MICROSOMES AND CYTOSOL, PCB, Method: PREINCUBATION", "value": "active; positive"}, {"measurement": "mutagenic call", "setting": "Test System: AMES SALMONELLA TYPHIMURIUM, Strain/Indicator: TA100, Metabolic Activation: RAT, LIVER, MICROSOMES AND G6PDH, PCB, Method: PREINCUBATION", "value": "active; positive"}, {"measurement": "mutagenic call", "setting": "Test System: AMES SALMONELLA TYPHIMURIUM, Strain/Indicator: TA100, Metabolic Activation: RAT, LIVER, MICROSOMES, PCB, Method: PREINCUBATION", "value": "inactive; negative"}, {"measurement": "mutagenic call", "setting": "Test System: AMES SALMONELLA TYPHIMURIUM, Strain/Indicator: TA100, Metabolic Activation: RAT, LIVER, S-9 (HEATED), PCB, Method: PREINCUBATION", "value": "inactive; negative"}, {"measurement": "mutagenic call", "setting": "Test System: AMES SALMONELLA TYPHIMURIUM, Strain/Indicator: TA100, Metabolic Activation: RAT, LIVER, S-9 (WITHOUT NADP+), PCB, Method: PREINCUBATION", "value": "inactive; negative"}, {"measurement": "mutagenic call", "setting": "Test System: AMES SALMONELLA TYPHIMURIUM, Strain/Indicator: TA100, Metabolic Activation: RAT, LIVER, S-9, 3-METHYLCHOLANTHRENE, Method: PREINCUBATION", "value": "inactive; negative"}, {"measurement": "mutagenic call", "setting": "Test System: AMES SALMONELLA TYPHIMURIUM, Strain/Indicator: TA100, Metabolic Activation: RAT, LIVER, S-9, AROCLOR 1254, Method: PREINCUBATION", "value": "active; positive"}, {"measurement": "mutagenic call", "setting": "Test System: AMES SALMONELLA TYPHIMURIUM, Strain/Indicator: TA100, Metabolic Activation: RAT, LIVER, S-9, PCB, Method: PREINCUBATION", "value": "active; positive"}, {"measurement": "mutagenic call", "setting": "Test System: AMES SALMONELLA TYPHIMURIUM, Strain/Indicator: TA100, Metabolic Activation: RAT, LIVER, S-9, PHENOBARBITAL, Method: PREINCUBATION", "value": "active; positive"}, {"measurement": "mutagenic call", "setting": "Test System: AMES SALMONELLA TYPHIMURIUM, Strain/Indicator: TA100, Metabolic Activation: RAT, LIVER, S-9, Method: PREINCUBATION", "value": "inactive; negative"}, {"measurement": "mutagenic call", "setting": "Test System: AMES SALMONELLA TYPHIMURIUM, Strain/Indicator: TA100, Method: PREINCUBATION", "value": "active; positive"}, {"measurement": "mutagenic call", "setting": "Test System: AMES SALMONELLA TYPHIMURIUM, Strain/Indicator: TA104, Metabolic Activation: RAT, LIVER, S-9, AROCLOR 1254, Method: PREINCUBATION", "value": "inactive; negative"}, {"measurement": "mutagenic call", "setting": "Test System: AMES SALMONELLA TYPHIMURIUM, Strain/Indicator: TA1535, Metabolic Activation: RAT, LIVER, S-9, AROCLOR 1254, Method: PREINCUBATION", "value": "active; positive"}, {"measurement": "mutagenic call", "setting": "Test System: AMES SALMONELLA TYPHIMURIUM, Strain/Indicator: TA1975, Metabolic Activation: RAT, LIVER, S-9, AROCLOR 1254, Method: PREINCUBATION", "value": "active; positive"}, {"measurement": "mutagenic call", "setting": "Test System: CHINESE HAMSTER V-79, Strain/Indicator: V-79/OUABAIN, Metabolic Activation: HAMSTER, HEPATOCYTES, Method: CELL-MEDIATED", "value": "active; positive"}]}
